Article PMC10739246 (ACS Bio & Med Chem Au, 2023)
In brackets after ≈: the same amount, converted by molar mass. Entries after “also recorded” stand apart in the source; their conditions may differ. Where two headings read alike, the source gives them in different places.

How the values were obtained:
[1] = system: S. aureus (ATCC 43300) MRSA; assay: MIC, microdilution, MRSA ATCC 43300; format: cell-based, Staphylococcus aureus; settings: for MIC: norfloxacin-resistant strain
[2] = system: M. tuberculosis (MC26020); assay: microbe, parasite or virus in culture; format: cell-based, Mycobacterium tuberculosis
[3] = system: E. faecalis (ATCC 19433); assay: MIC, E. faecalis ATCC 19433; format: cell-based, Enterococcus faecalis
[4] = system: cell wall biosynthesis in B. subtilis DSM402; assay: Summary of cell wall synthesis experiments; format: cell-based, Bacillus subtilis
[5] = system: S. aureus (CCUG1800T); assay: MIC, microdilution, S. aureus CCUG1800T; format: cell-based, Staphylococcus aureus
[6] = system: P. aeruginosa (PAO1); assay: MIC, microdilution, P. aeruginosa PAO1; format: cell-based, Pseudomonas aeruginosa
[7] = system: B. subtilis DSM402; assay: Peptidoglycan integrity assay (acetic acid/methanol fixation); settings: 1x MIC; 30 min (cell wall inhibitors) or 60 min
[8] = system: B. subtilis DSM402; settings: for concentration (MIC against B. subtilis DSM402): Tab. S13, concentrations represent MIC values; for μM (concentration used, 1x MIC): Table 2, cells treated with 1x MIC
[9] = system: B. subtilis DSM402; assay: Bacterial cytological profiling (BCP) in B. subtilis DSM402; format: cell-based, Bacillus subtilis; settings: for DAPI / phase contrast / FM4-64: 1x MIC, 1 h; for DAPI: DNA condensation; for phase contrast: indicates cell lysis; for FM4-64: membrane stain; for gyrase inhibition / membrane damage: interpretation of BCP in B. subtilis
[10] = system: norfloxacin-resistant clinical isolate of E. coli; assay: MIC, microdilution, norfloxacin-resistant clinical isolate of E. coli; format: cell-based, Escherichia coli; settings: read-out: MIC E. coli (norfloxacin-resistant strain)
[11] = system: E. coli (W3110); assay: MIC, microdilution, E. coli W3110; format: cell-based, Escherichia coli; settings: for MIC: Gram-negative strain, average of duplicate experiments, read-out: MIC E. coli (W3110); for concentration (MIC against E. coli W3110): Tab. S11, concentrations represent MIC values
[12] = system: K. pneumoniae (ATCC 10031); assay: MIC, K. pneumoniae ATCC 10031; format: cell-based, Klebsiella pneumoniae
[13] = system: E. coli BCB472; assay: GlpT localization (inner membrane) in E. coli BCB472; settings: 1x MIC, 1 h; GFP-tagged membrane protein
[14] = system: E. coli W3110; assay: Bacterial cytological profiling (BCP) in E. coli W3110; format: cell-based, Escherichia coli; settings: for DAPI / phase contrast / FM4-64: 1x MIC, 1 h; for DAPI: DNA condensation; for phase contrast: indicates cell lysis; for FM4-64: membrane stain; for gyrase inhibition / membrane damage: interpretation of BCP in E. coli
[15] = system: MreB in B. subtilis MW10; assay: MreB mobility assay; format: cell-based, Bacillus subtilis; settings: B. subtilis MW10, 1 h of antibiotic exposure
Procedure: MreB is an actin homologue that forms filamentous structures along the lateral axis of the cell. It moves along the length of the cells in a spiraling pattern thereby driving lateral peptidoglycan synthesis.[36],[37] MreB mobility is sensitive to inhibition of peptidoglycan synthesis and so far, every cell wall synthesis inhibitor we tested abolished MreB movement (see Figure S70 for examples).
Expression of msfGFP-MreB was induced with 0.3% xylose. Pictures were taken after 1 h of antibiotic exposure. Two images of the same field of view were recorded 30 s apart and overlaid in ImageJ to visualize MreB mobility. A perfect overlap (yellow) indicates stalled MreB movement, while distinct red and green foci are indicative of MreB mobility. Scale bar 2 μm.
Fig. S70: MreB motility in B. subtilis MW10 after treatment with different cell wall synthesis inhibitors. Expression of GFP-MreB was induced with 0.3% xylose. Cells were treated with 1x […]
Two images of the same field of view were recorded 30 sec apart and overlaid in ImageJ to visualize MreB mobility. A perfect overlap (yellow) indicates stalled MreB movement while distinct red and green spots are indicative of MreB mobility. Scale bar 2 µm.

[16] = system: MurG in B. subtilis TNVS175; assay: MurG localization; format: cell-based, Bacillus subtilis; settings: 1x MIC; 30 min (vancomycin) or 1 h;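 also: normal MurG forms small membrane spots and peptidoglycan inhibition gives large clusters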
[17] = system: E. coli; settings: for FICM (MICMcheckerboard/MICM): mupirocin alone 64 µg/mL; for FICI (fractional inhibitory concentration index): with mupirocin, FICC+FICM
[18] = system: E. coli; assay: microbe, parasite or virus in culture; settings: Escherichia coli, read-out: MICC (MIC of the test compound alone)
[19] = read-out: MIC S. aureus (CCUG1800T)
[20] = norfloxacin-resistant clinical isolate

In the case of `CCn1cc(C(=O)O)c(=O)c2cc(F)c(N3CCN(C(=O)CNNC(=O)c4ccncc4)CC3)cc21` [compound 16], the MIC [1] is reported as 64.45 µM (≈ 32 µg/mL), the “MIC M. tuberculosis (MC26020)” value [2] is reported as 1 µM (≈ 0.496 µg/mL) and the MIC [3] is reported as 2.01 µM (≈ 0.998 µg/mL). The “CWB inhibited?” value [4] was “no”, the MIC ([5]; Tab. S10, DNA gyrase side, strain not given, values equal S. aureus CCUG1800T of Table 1, read-out: MIC) was 2.01 µM (≈ 0.998 µg/mL) and the MIC [5, 19] was 2.01 µM (≈ 0.998 µg/mL). For the same molecule, the MIC [6] was 515.61 µM (≈ 256 µg/mL), the PG integrity [7] was “intact” and the “concentration (MIC against B. subtilis DSM402)” value [8] was 2.01 µM. The “μM (concentration used, 1x MIC)” value [8] was 2.01 µM, the DAPI [9] was “condensed” and the phase contrast [9] was “dark”. The FM4-64 [9] was “patchy”, the gyrase inhibition [9] was “yes” and the membrane damage [9] was “yes”. The MIC [10, 20] was 32.22 µM (≈ 16 µg/mL), the MIC [11] was 64.45 µM (≈ 32 µg/mL) and the MIC [12] was 12.08 µM (≈ 6 µg/mL).
For polymyxin B [PolB, reference compound], the GlpT [13] was “dispersed”, the “concentration (MIC against E. coli W3110)” value [11] was 0.83 µM and the DAPI [14] was “dispersed”. For the same molecule, the phase contrast [14] was “dark”, the FM4-64 [14] was “patchy” and the gyrase inhibition [14] was “no”. For the same molecule, the membrane damage [14] was “yes”.
With `N[C@@H]1CON=C1O` [D-Cyc, D-cycloserine] the MreB mobility [15] was “static with foci”, the “CWB inhibited?” value [4] was “yes” and the PG integrity [7] was “compromised”. For the same molecule, the “protein localization MurG” value [16] was “patchy” and the “μM (concentration used, 1x MIC)” value [8] was 293.85 µM.
`CCn1cc(C(=O)O)c(=O)c2cc(F)c(N3CCN(CN4C(=O)C(=O)c5cc(OC)ccc54)CC3)cc21` [20c] was tested, and the “fold more active than norfloxacin” value [1] was 6.3 fold, the MIC [1] was 15.73 µM (≈ 8 µg/mL) and the “MIC M. tuberculosis (MC26020)” value [2] was greater than 1006.88 µM. The MIC [3] was 251.72 µM (≈ 128 µg/mL), the MIC [5, 19] was 31.46 µM (≈ 16 µg/mL) and the MIC [6] was 62.93 µM (≈ 32 µg/mL). The MIC [10, 20] was 1006.88 µM (≈ 512 µg/mL), the MIC [11] was 4.91 µM (≈ 2.5 µg/mL) and the MIC [12] was 503.44 µM (≈ 256 µg/mL).
`CCn1cc(C(=O)O)c(=O)c2cc(F)c(N3CCN(CN4C(=O)C(=O)c5cc(C)ccc54)CC3)cc21` [20b] was tested, and the MIC [1] was 259.89 µM (≈ 128 µg/mL), the “MIC M. tuberculosis (MC26020)” value [2] was 129.94 µM (≈ 64 µg/mL) and the MIC [3] was 6.09 µM (≈ 3 µg/mL). For the same molecule, the MIC [5, 19] was 32.48 µM (≈ 16 µg/mL), the MIC [6] was 16.24 µM (≈ 8 µg/mL) and the MIC [10, 20] was greater than 1039.59 µM. The MIC [11] was 5.07 µM (≈ 2.5 µg/mL) and the MIC [12] was 3.04 µM (≈ 1.5 µg/mL).
`CCn1cc(C(=O)O)c(=O)c2cc(F)c(N3CCN(C(=O)CCl)CC3)cc21` [compound 2] was tested, and the MIC [1] was 161.69 µM (≈ 64 µg/mL), the “MIC M. tuberculosis (MC26020)” value [2] was greater than 1293.54 µM and the MIC [3] was 6.31 µM (≈ 2.5 µg/mL). For the same molecule, the “CWB inhibited?” value [4] was “no”, the MIC [5, 19] was 2.52 µM (≈ 0.997 µg/mL) and the MIC [6] was 192 µM (≈ 76 µg/mL). The “FICC (fractional inhibitory concentration of the test compound)” value ([17]; MICCcheckerboard/MICC) was 1.25, the “MICC (MIC of the test compound alone)” value ([17]; average of at least two replicates) was 2 µg/mL and the Outcome ([17]; checkerboard with mupirocin) was “additive (>0.5 to ≤4.0 as additive (no interaction))”. The “MICCcheckerboard (MIC of the test compound in checkerboard assay)” value ([17]; combined with mupirocin) was 2.5 µg/mL, the “FICM (MICMcheckerboard/MICM)” value [17] was 0.2656 and the “MICMcheckerboard (MIC of mupirocin in checkerboard assay)” value ([17]; mupirocin combined with the compound of the line) was 7.8 µg/mL. The “FICI (fractional inhibitory concentration index)” value [17] was 1.5156, the PG integrity [7] was “came close to the cutoff value; also recorded: intact” and the “concentration (MIC against B. subtilis DSM402)” value [8] was 1.89 µM. The “μM (concentration used, 1x MIC)” value [8] was 1.89 µM, the DAPI [9] was “condensed” and the phase contrast [9] was “dark”. For the same molecule, the FM4-64 [9] was “smooth”, the gyrase inhibition [9] was “yes” and the membrane damage [9] was “no”. The MIC [10] was greater than 1293.54 µM, the GlpT [13] was “smooth” and the MIC [11] was 6.31 µM (≈ 2.5 µg/mL). For the same molecule, the “concentration (MIC against E. coli W3110)” value [11] was 6.31 µM, the MIC [12] was 121.27 µM (≈ 48 µg/mL) and the DAPI [14] was “condensed”. The phase contrast [14] was “dark”, the FM4-64 [14] was “smooth” and the gyrase inhibition [14] was “yes”. For the same molecule, the membrane damage [14] was “no”.
`CC(C)(N)[C@H](NC(=O)c1ccc(C#CC#C[C@@H]2C[C@H]2CO)cc1)C(=O)NO` [ACHN-975, reference compound] was tested, and the MIC [18] was 0.5 µg/mL, the “FICM (MICMcheckerboard/MICM)” value [17] was 0.0469 and the “FICI (fractional inhibitory concentration index)” value [17] was 0.2969.
